Reference: patent US20030149235A1, “Targeting peptides” (priority 2000, published 2003)
“Also recorded” adds a separate entry of the source. Non-standard residues stand in square brackets, D forms with d. Residues, ends and D or L forms follow the SMILES beside them. *: point of attachment. Nle = CCCC[C@H](N)C(=O)O; Cbz = O=C(OCc1ccccc1)*

Key:
HUVEC = experiment: wtAAVegfp transduction, eGFP fluorimetry; format: cell-based, human; conditions: 250 transduction units/cell, 40 μM LLnL, 4 μM mg132, 5 μg/ml aphidicolin, 10 μM etoposide
Description: FIG. 6 illustrates the efficiency of AAV-mediated gene transfer to ECs. (A) HUVEC and HeLa cells were mock infected (open bars) or infected with 1000 transduction units/cell of wtAAVegfp (filled bars) and analyzed for eGFP expression by fluorimetry and fluorescence microscopy. (B) ECs were infected with 250 transduction units/cell wtMVegfp in the presence or absence of mg132, LLnL, genistein, hydroxyurea, aphidicolin, etoposide, or camptothecin and harvested for quantification of eGFP by fluorimetry at either 24 h or 96 h postinfection. RFU, relative fluorescent units. *Indicates statistical significance from wtMVegfp alone at the same time point. Representative of three independent experiments;
Cells were plated to reach 80% confluence 24 h later. In each case an accurate cell count was performed immediately before infection. Cells were infected with increasing doses of AAV vectors in the presence or absence of helper adenovirus (Ad) as indicated. For each cell type, Ad co-infection was performed at a dose that mediated 70% transduction, based on prior infection efficiency experiments performed on each cell type using a LacZ-expressing Ad, RAd35. At the required time point, cells were washed and lysed in 0.2% Triton X-100 in PBS and stored at −20° C. For dissection of AAV transduction of EC, cells were incubated with AAV in the absence or presence of 40 μM LLnL, 4 μM mg132, 50 μM genistein, 40 mM hydroxyurea, 5 μg/ml aphidicolin, 10 μM etoposide, 0.1 μM camptothecin or 150 nM bafilomycin A2.
Cells were infected as indicated above in the absence or presence of 1 IU heparin/[…] genomic particles and analyzed for gene expression 72 h later. In addition a column assay was carried out. AAVwt or AAVsig were loaded onto heparin columns (immobilized on cross-linked 4% beaded agarose; Sigma) that had been prepacked and equilibrated according to the manufacturer's recommendations. Purified viral preparations (6.4×10^11 particles) in 200 μl were loaded, and the flow-through, wash, and 1 M NaCl eluates were collected and analyzed by dot-blot hybridization using twofold serial dilutions. For quantification of wtAAVegfp-mediated gene transfer to vascular EC, aliquots of cell extracts were analyzed in triplicate for eGFP expression using a Wallac Victor2 multi-counter with recombinant eGFP (Clontech, Basingstoke, Hants., UK) as a standard. All data were analyzed as eGFP relative light units (RFU)/mg protein. For analysis of AAVsig and AAVwtdriven lacZ expression, aliquots of cell extracts were analyzed for beta-galactosidase expression using Galacto-Light Plus (Tropix, Mass., U.S.A.) as per manufacturer's recommendations using recombinant beta-galactosidase (Sigma, UK) as a standard. All data were expressed as RLU/mg protein.

HEC [1] = experiment: Binding of homogenous candidate phage to cells; parameters: species or system human; conditions: 10^7 pfu
Experimental: (§1) 10^7 pfu of homogenous phage populations containing candidate peptides were panned on human endothelial cells (HEC), vascular smooth muscle cells (VSMC) and HepG2 hepatocytes, binding from a control peptide-less phage, subtracted and recovery calculated and expressed as a percentage of HEC;
(§2) Phage libraries were amplified, purified and titered according to manufacturers protocols. HEC were plated into 6 well plates and cultured until 2 days post-confluence. 1×10^9 pfu of input phage library was used to pan confluent cultures of HEC (passage 2-4) in triplicate. First we used a direct screening approach and biopanned HEC for 4 rounds. Second we biopanned on HEC after biopanning for 1 hour on 2 successive cultures of VSMC, HepG2 and peripheral blood mononuclear cells (pre-clearing steps). Prior to biopanning growth media was changed to 1 ml DMEM containing 1% bovine serum albumin (BSA) and the plates were incubated at 4° C. for 15 minutes. For HEC, 1×10^9 pfu of pre-cleared or stock phage library was incubated with cells for 1 hour at 4° C. Cells were washed 5 times in ice-cold PBS/1% BSA for 5 minutes per wash. Weakly associated phage were eluted in 1 ml 0.2 M glycine (pH 2.2) for 10 minutes on ice, followed by neutralisation with 200 μl Tris-HCl (pH 8.0). High affinity phage (tightly-bound phage) were isolated by lysing the cells in 1 ml of 30 mM Tris-HCL/1 mM EDTA (pH 8.0) for 1 hour on ice. Cell debris was removed and the supernatant recovered. Phage were amplified and titered between each round to ensure that 10^9 pfu of input phage were used at the start of each successive round. Following completion of biopanning, E. coli ER2537 were infected with the resulting phage, plated and individual plaques picked, amplified, and sequenced. For further binding studies, high titer homogenous populations of each phage were prepared. Briefly, 1×10^7 pfu of each phage were biopanned on HEC, VSMC and HepG2 cells for 30 minutes at 4° C. […] The percentage recovery was calculated for each cell type using a peptide-less phage to allow for background binding.

HepG2 hepatocytes = experiment: Binding of homogenous candidate phage to cells; parameters: species or system human
Experimental: as §1, §2

VSMC = experiment: Binding of homogenous candidate phage to cells; parameters: species or system human
Experimental: as §1, §2

HEC [2] = conditions: peptide fused to an antibody against the Ad5 fiber knob; reference [47]; cited from earlier work

Row | Compound | effect of agent on wtAAVegfp reporter gene expression versus infection without treatment (HUVEC) | further results
1 | CCCC[C@@H](C=O)NC(=O)[C@H](CC(C)C)NC(=O)[C@H](CC(C)C)NC(C)=O [LLnL] (Ac-Leu-Leu-[Nle]-aldehyde) | increase | –
2 | C[C@@]1(CO)[C@H](O)CC[C@@]2(C)[C@H]1CC[C@H]1C[C@@H]3C[C@@]12CC[C@]3(O)CO [aphidicolin] | enhanced | –
3 | COc1cc([C@@H]2c3cc4c(cc3[C@@H](O[C@@H]3O[C@@H]5CO[C@@H](C)O[C@H]5[C@H](O)[C@H]3O)[C@H]3COC(=O)[C@H]23)OCO4)cc(OC)c1O [etoposide] | enhanced | –
4 | CC(C)C[C@@H](C=O)NC(=O)[C@H](CC(C)C)NC(=O)[C@H](CC(C)C)NC(=O)OCc1ccccc1 [mg132] (Cbz-Leu-Leu-Leu-aldehyde) | increase | –
5 | SIGYPLP | – | binding to HEC (HEC [1]): high-level binding; binding to HepG2 hepatocytes compared to HEC (HepG2 hepatocytes): limited binding; also recorded: low-level affinity; binding to VSMC compared to HEC (VSMC): limited binding; also recorded: low-level affinity; adenoviral gene transfer into human EC versus non-targeted Ad (HEC [2]): 15 fold
